Test results taken from patent US9273040B2 (Merck Sharp & Dohme Corp., priority 2011, dated 2016).

Tests used:
[1] = biological target: T1, human Nav1.7 channels stably expressed in HEK 293 cells (Homo sapiens, UniProt Q15858); experiment: PatchXpress 7000 automated patch-clamp, sodium current; format: cell-based; conditions: 22° C., read-out: potency for the Nav 1.7 sodium ion channel (as measured by PatchXpress)
T1 construct: expressed in transfected cells
Outline: (§1)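 IC50 values came from Hill-equation fits of rundown-corrected inhibition. PatchXpress recordings at 22° C held cells 20 mV negative to V0.5 inact and applied 10 Hz trains of 30 ms steps to −20 mV (Nav1.7) or an 8000 ms prepulse 7 mV positive to V0.5 inact. […]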

[2] = biological target: T2, human Nav1.5 channels stably expressed in HEK 293 cells (Homo sapiens, UniProt Q14524); experiment: as above; format: cell-based; conditions: selectivity over Nav1.5
T2 construct: expressed in transfected cells
Outline: as §1

T2 sequence (Q14524 whole entry): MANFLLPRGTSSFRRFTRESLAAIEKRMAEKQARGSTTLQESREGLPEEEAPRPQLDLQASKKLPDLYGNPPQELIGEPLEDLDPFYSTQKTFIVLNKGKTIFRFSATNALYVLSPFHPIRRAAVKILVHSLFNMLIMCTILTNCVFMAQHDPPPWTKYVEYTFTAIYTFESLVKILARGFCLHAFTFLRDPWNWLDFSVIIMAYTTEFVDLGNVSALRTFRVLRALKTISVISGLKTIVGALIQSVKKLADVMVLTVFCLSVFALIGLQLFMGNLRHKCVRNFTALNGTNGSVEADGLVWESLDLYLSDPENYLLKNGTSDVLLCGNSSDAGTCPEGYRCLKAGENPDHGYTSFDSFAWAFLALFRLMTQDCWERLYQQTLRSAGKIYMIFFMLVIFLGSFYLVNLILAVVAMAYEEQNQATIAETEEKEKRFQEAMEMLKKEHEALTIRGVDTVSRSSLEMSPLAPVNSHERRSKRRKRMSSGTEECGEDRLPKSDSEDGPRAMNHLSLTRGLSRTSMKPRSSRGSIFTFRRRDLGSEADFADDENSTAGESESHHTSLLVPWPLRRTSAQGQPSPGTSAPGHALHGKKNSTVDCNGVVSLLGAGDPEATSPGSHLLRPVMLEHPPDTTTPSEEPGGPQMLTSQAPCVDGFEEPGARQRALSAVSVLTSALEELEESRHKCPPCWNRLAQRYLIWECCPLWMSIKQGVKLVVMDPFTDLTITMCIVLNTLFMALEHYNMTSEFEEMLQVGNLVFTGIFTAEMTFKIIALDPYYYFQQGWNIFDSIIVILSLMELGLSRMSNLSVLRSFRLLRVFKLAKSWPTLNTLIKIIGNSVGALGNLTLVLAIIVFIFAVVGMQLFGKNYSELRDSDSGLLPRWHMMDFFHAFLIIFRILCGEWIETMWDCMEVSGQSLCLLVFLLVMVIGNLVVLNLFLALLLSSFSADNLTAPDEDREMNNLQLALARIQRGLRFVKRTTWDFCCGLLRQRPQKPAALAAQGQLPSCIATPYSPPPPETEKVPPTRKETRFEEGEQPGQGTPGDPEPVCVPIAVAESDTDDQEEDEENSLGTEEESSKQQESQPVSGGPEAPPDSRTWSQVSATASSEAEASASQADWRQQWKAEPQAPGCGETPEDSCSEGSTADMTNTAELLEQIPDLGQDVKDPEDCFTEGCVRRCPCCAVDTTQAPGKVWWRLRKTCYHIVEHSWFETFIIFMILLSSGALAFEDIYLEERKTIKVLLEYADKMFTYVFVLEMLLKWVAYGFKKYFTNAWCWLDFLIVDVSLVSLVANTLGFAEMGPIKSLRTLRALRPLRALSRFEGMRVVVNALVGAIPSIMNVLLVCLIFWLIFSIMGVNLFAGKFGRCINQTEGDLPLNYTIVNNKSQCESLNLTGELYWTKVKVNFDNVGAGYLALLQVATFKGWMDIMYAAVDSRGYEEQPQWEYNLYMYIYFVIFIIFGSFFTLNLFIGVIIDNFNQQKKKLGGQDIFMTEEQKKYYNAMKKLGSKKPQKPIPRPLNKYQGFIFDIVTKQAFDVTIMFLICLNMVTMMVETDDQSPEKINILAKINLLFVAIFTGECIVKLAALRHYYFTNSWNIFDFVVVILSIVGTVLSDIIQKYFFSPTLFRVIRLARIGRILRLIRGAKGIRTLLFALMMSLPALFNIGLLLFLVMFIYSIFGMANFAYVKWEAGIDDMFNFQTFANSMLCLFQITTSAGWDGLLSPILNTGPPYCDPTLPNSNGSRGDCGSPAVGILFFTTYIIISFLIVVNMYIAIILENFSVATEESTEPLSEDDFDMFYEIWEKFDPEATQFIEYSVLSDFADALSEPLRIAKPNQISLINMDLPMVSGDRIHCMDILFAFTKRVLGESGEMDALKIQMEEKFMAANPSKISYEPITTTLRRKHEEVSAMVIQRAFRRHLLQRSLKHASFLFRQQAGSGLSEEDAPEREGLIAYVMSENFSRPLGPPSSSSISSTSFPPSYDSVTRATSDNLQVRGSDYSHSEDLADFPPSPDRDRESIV
T1 sequence (Q15858 whole entry): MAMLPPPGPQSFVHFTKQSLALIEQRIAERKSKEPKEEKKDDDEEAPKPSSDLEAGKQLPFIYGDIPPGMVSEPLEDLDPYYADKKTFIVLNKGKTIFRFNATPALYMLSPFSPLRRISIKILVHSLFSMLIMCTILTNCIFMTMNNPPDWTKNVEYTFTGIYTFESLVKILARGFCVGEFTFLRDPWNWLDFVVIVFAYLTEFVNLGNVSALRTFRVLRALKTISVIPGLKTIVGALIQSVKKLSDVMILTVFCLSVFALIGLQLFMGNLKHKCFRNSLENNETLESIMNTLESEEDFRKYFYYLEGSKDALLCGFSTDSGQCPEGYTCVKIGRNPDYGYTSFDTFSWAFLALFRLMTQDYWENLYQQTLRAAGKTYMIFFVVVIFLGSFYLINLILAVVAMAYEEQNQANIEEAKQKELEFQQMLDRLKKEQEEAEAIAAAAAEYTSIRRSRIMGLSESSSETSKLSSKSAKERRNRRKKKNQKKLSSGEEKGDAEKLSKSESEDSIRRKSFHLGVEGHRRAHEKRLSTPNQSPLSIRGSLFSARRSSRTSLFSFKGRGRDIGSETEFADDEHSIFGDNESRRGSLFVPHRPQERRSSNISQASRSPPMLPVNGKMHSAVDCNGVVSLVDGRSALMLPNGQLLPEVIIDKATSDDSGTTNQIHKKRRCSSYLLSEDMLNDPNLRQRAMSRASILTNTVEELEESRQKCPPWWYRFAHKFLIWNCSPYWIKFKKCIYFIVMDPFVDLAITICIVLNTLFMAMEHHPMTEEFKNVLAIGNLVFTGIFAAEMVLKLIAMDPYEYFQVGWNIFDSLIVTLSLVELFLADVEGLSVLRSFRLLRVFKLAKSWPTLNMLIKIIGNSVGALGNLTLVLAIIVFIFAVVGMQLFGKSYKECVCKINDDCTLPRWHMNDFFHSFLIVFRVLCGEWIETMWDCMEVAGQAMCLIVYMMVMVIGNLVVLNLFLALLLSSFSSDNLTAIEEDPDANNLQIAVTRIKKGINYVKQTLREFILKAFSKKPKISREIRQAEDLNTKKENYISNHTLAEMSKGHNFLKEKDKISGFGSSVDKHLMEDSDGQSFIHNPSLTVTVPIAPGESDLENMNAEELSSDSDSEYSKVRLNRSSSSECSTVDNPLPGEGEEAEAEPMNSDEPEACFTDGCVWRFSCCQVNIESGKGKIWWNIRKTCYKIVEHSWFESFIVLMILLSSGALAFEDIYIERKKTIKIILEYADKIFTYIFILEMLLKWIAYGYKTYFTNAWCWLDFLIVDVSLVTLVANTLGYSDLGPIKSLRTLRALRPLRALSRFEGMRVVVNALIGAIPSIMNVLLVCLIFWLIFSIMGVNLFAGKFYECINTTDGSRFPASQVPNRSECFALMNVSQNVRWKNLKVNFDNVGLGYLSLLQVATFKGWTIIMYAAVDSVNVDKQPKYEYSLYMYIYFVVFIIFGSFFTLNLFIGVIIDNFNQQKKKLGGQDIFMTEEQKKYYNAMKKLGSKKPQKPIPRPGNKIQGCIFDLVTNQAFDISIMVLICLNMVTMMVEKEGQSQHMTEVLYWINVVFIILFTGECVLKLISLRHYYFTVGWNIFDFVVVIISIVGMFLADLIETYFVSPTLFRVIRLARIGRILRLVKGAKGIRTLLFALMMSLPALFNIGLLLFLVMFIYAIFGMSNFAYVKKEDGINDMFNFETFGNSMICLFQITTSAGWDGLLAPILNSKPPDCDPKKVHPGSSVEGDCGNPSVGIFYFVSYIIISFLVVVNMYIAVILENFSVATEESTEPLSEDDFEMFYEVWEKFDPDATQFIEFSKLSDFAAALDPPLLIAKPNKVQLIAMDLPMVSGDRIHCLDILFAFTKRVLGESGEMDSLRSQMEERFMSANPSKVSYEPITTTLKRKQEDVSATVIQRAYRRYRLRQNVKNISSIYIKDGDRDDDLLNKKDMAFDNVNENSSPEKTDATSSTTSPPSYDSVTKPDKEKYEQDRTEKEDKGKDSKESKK

SMILES | IC50 [1] [nM] | ratio of Nav 1.5:Nav 1.7 potency, determined by PatchXpress measurement [2]
CNCC#Cc1ccccc1[C@@H](C)n1c(=O)oc2cc(S(=O)(=O)Nc3ncns3)c(F)cc21 [Compound 17-11, 5-fluoro-3-[(1R)-1-{2-[3-(methylamino)prop-1-yn-1-yl]phenyl}ethyl]-2-oxo-N-1,2,4-thiadiazol-5-yl-2,3-dihydro-1,3-benzoxazole-6-sulfonamide] | 51 | 589
C[C@H](O)C#Cc1ccccc1[C@@H](C)n1c(=O)oc2cc(S(=O)(=O)Nc3ncns3)c(F)cc21 [Compound 17-12, 5-fluoro-3-[(1R)-1-{2-[(3S)-3-hydroxybut-1-yn-1-yl]phenyl}ethyl]-2-oxo-N-1,2,4-thiadiazol-5-yl-2,3-dihydro-1,3-benzoxazole-6-sulfonamide] | 37 | 262
C[C@H](c1ccccc1C#CCC1CCCN1)n1c(=O)oc2cc(S(=O)(=O)Nc3ncns3)c(F)cc21 (stereo partly drawn) [Compound 17-13, 5-fluoro-2-oxo-3-{(1R)-1-[2-(3-pyrrolidin-2-ylprop-1-yn-1-yl)phenyl]ethyl}-N-1,2,4-thiadiazol-5-yl-2,3-dihydro-1,3-benzoxazole-6-sulfonamide] | 34 | 789
C[C@H](c1ccccc1C#CC1CCNC1)n1c(=O)oc2cc(S(=O)(=O)Nc3ncns3)c(F)cc21 (stereo partly drawn) [Compound 17-14, 5-fluoro-2-oxo-3-{(1R)-1-[2-(pyrrolidin-3-ylethynyl)phenyl]ethyl}-N-1,2,4-thiadiazol-5-yl-2,3-dihydro-1,3-benzoxazole-6-sulfonamide] | 34 | 1055
C[C@H](c1ccccc1C#CCC(C)(C)N)n1c(=O)oc2cc(S(=O)(=O)Nc3ncns3)c(F)cc21 [Compound 17-15, 3-{(1R)-1-[2-(4-amino-4-methylpent-1-yn-1-yl)phenyl]ethyl}-5-fluoro-2-oxo-N-1,2,4-thiadiazol-5-yl-2,3-dihydro-1,3-benzoxazole-6-sulfonamide] | 32 | 1566
C[C@H](c1ccccc1C#CC1CNC1)n1c(=O)oc2cc(S(=O)(=O)Nc3ncns3)c(F)cc21 [Compound 17-16, 3-{(1R)-1-[2-(azetidin-3-ylethynyl)phenyl]ethyl}-5-fluoro-2-oxo-N-1,2,4-thiadiazol-5-yl-2,3-dihydro-1,3-benzoxazole-6-sulfonamide] | 31 | 973
C[C@H](c1ccccc1C#C[C@@H]1CCCN1)n1c(=O)oc2cc(S(=O)(=O)Nc3ncns3)c(F)cc21 [Compound 17-17, 5-fluoro-2-oxo-3-[(1R)-1-{2-[(2S)-pyrrolidin-2-ylethynyl]phenyl}ethyl]-N-1,2,4-thiadiazol-5-yl-2,3-dihydro-1,3-benzoxazole-6-sulfonamide] | 29 | 1034
C[C@H](c1ccccc1C#CCN1CCC1)n1c(=O)oc2cc(S(=O)(=O)Nc3ncns3)c(F)cc21 [Compound 17-18, 3-{(1R)-1-[2-(3-azetidin-1-ylprop-1-yn-1-yl)phenyl]ethyl}-5-fluoro-2-oxo-N-1,2,4-thiadiazol-5-yl-2,3-dihydro-1,3-benzoxazole-6-sulfonamide] | 28 | 1085
CC(N)C#Cc1ccccc1[C@@H](C)n1c(=O)oc2cc(S(=O)(=O)Nc3ncns3)c(F)cc21 (stereo partly drawn) [Compound 17-19, 3-{(1R)-1-[2-(3-aminobut-1-yn-1-yl)phenyl]ethyl}-5-fluoro-2-oxo-N-1,2,4-thiadiazol-5-yl-2,3-dihydro-1,3-benzoxazole-6-sulfonamide] | 22 | 1390
C[C@H](c1ccccc1C#CCN)n1c(=O)oc2cc(S(=O)(=O)Nc3ncns3)c(F)cc21 [Compound 17-20, 3-{(1R)-1-[2-(3-aminoprop-1-yn-1-yl)phenyl]ethyl}-5-fluoro-2-oxo-N-1,2,4-thiadiazol-5-yl-2,3-dihydro-1,3-benzoxazole-6-sulfonamide] | 13 | 2324
C[C@H](c1ccccc1C#C[C@H]1CCCN1)n1c(=O)oc2cc(S(=O)(=O)Nc3ncns3)c(F)cc21 [Compound 17-21, 5-fluoro-2-oxo-3-[(1R)-1-{2-[(2R)-pyrrolidin-2-ylethynyl]phenyl}ethyl]-N-1,2,4-thiadiazol-5-yl-2,3-dihydro-1,3-benzoxazole-6-sulfonamide] | 13 | 2344
C[C@H](c1ccccc1C#CC1CCCCN1)n1c(=O)oc2cc(S(=O)(=O)Nc3ncns3)c(F)cc21 (stereo partly drawn) [Compound 17-22, 5-fluoro-2-oxo-3-{(1R)-1-[2-(piperidin-2-ylethynyl)phenyl]ethyl}-N-1,2,4-thiadiazol-5-yl-2,3-dihydro-1,3-benzoxazole-6-sulfonamide] | 13 | 1456
C[C@H](c1ccccc1C#CC1(N)CCCCC1)n1c(=O)oc2cc(S(=O)(=O)Nc3ncns3)c(F)cc21 [Compound 17-23, 3-[(1R)-1-{2-[(1-aminocyclohexyl)ethynyl]phenyl}ethyl]-5-fluoro-2-oxo-N-1,2,4-thiadiazol-5-yl-2,3-dihydro-1,3-benzoxazole-6-sulfonamide] | 12 | 2477
C[C@H](c1ccccc1CN1CCCC1)n1c(=O)oc2cc(S(=O)(=O)Nc3ncns3)c(F)cc21 [Compound 18-2, (R)-5-fluoro-2-oxo-3-(1-(2-(pyrrolidin-1-ylmethyl)phenyl)ethyl)-N-(1,2,4-thiadiazol-5-yl)-2,3-dihydrobenzo[d]oxazole-6-sulfonamide] | 24 | 446
C[C@H](c1ccccc1CN1CCC(F)(F)C1)n1c(=O)oc2cc(S(=O)(=O)Nc3ncns3)c(F)cc21 [Compound 18-3, 3-[(1R)-1-{2-[(3,3-difluoropyrrolidin-1-yl)methyl]phenyl}ethyl]-5-fluoro-2-oxo-N-1,2,4-thiadiazol-5-yl-2,3-dihydro-1,3-benzoxazole-6-sulfonamide] | 768 | 15
C[C@H](c1ccccc1CN1CCC(F)C1)n1c(=O)oc2cc(S(=O)(=O)Nc3ncns3)c(F)cc21 (stereo partly drawn) [Compound 18-4, 5-fluoro-3-[(1R)-1-{2-[(3-fluoropyrrolidin-1-yl)methyl]phenyl}ethyl]-2-oxo-N-1,2,4-thiadiazol-5-yl-2,3-dihydro-1,3-benzoxazole-6-sulfonamide] | 132 | 82
C[C@H](c1ccccc1CN(C)C)n1c(=O)oc2cc(S(=O)(=O)Nc3ncns3)c(F)cc21 [Compound 18-5, 3-[(1R)-1-{2-[(dimethylamino)methyl]phenyl}ethyl]-5-fluoro-2-oxo-N-1,2,4-thiadiazol-5-yl-2,3-dihydro-1,3-benzoxazole-6-sulfonamide] | 13 | 525
Cl.O=c1oc2cc(S(=O)(=O)Nc3ncns3)c(F)cc2n1Cc1cccc2c1CC(N1CC(F)(F)C1)CC2 (stereo not drawn) [Compound 19-6, 3-((7-(3,3-difluoroazetidin-1-yl)-5,6,7,8-tetrahydronaphthalen-1-yl)methyl)-5-fluoro-2-oxo-N-(1,2,4-thiadiazol-5-yl)-2,3-dihydrobenzo[d]oxazole-6-sulfonamide hydrochloride] | 118 | 103
O=c1oc2cc(S(=O)(=O)Nc3ncns3)c(F)cc2n1Cc1cccc2c1CC(O)CC2 (stereo not drawn) [Compound 21-1, 5-fluoro-3-((7-hydroxy-5,6,7,8-tetrahydronaphthalen-1-yl)methyl)-2-oxo-N-(1,2,4-thiadiazol-5-yl)-2,3-dihydrobenzo[d]oxazole-6-sulfonamide] | 121 | 113
CC(=O)NC1CCc2cccc(Cn3c(=O)oc4cc(S(=O)(=O)Nc5ncns5)c(F)cc43)c2C1 (stereo not drawn) [Compound 22-1, N-(8-((6-(N-(1,2,4-thiadiazol-5-yl)sulfamoyl)-5-fluoro-2-oxobenzo[d]oxazol-3(2H)-yl)methyl)-1,2,3,4-tetrahydronaphthalen-2-yl)acetamide] | 175 | 172
Cl.O=c1oc2cc(S(=O)(=O)Nc3ncns3)c(F)cc2n1Cc1cccc2c1CNCC2F (stereo not drawn) [Compound 24-9, 5-fluoro-3-((4-fluoro-1,2,3,4-tetrahydroisoquinolin-8-yl)methyl)-2-oxo-N-(1,2,4-thiadiazol-5-yl)-2,3-dihydrobenzo[d]oxazole-6-sulfonamide hydrochloride] | 183 | 704
Nc1cc2c(Cn3c(=O)oc4cc(S(=O)(=O)Nc5ncns5)c(F)cc43)cccc2cn1 [Compound 26-5, 3-((3-Aminoisoquinolin-5-yl)methyl)-5-fluoro-2-oxo-N-(1,2,4-thiadiazol-5-yl)-2,3-dihydrobenzo[d]oxazole-6-sulfonamide] | 67 | 450
Nc1cc2cccc(Cn3c(=O)oc4cc(S(=O)(=O)Nc5ncns5)c(F)cc43)c2cn1 [Compound 27-5, 3-((3-aminoisoquinolin-8-yl)methyl)-5-fluoro-2-oxo-N-(1,2,4-thiadiazol-5-yl)-2,3-dihydrobenzo[d]oxazole-6-sulfonamide] | 67 | 450
O=c1oc2cc(S(=O)(=O)Nc3ncns3)ccc2n1Cc1cccc2cc(Cl)ncc12 [Compound 27-7, 3-[(3-chloroisoquinolin-8-yl)methyl]-2-oxo-N-1,2,4-thiadiazol-5-yl-2,3-dihydro-1,3-benzoxazole] | 182 | 144
